Measured values: PMC5489165, “Identification of benzazole compounds that induce HIV-1 transcription” (PLoS ONE, 2017)

Tests used:
[1] = Protein binding, mouse plasma (ultrafiltration); assay type: in vitro ADME; details: pH 7.4
Protocol: Binding of test compound to plasma proteins was estimated by incubation of test compounds with mouse or human plasma. Human plasma was obtained from BioreclamationIVT (Westbury, NY). […] After a 15 min incubation at 37°C, triplicate aliquots of the incubation mixtures were transferred to a Millipore Multiscreen Ultracel-10 filter plate (10 kDa molecular mass cut off, EMD Millipore, Billerica, MA). The plate was centrifuged for 60 min at 3000 × g and 37°C. After centrifugation, aliquots of both the ultrafiltrates as well as the incubation mixtures prior to ultrafiltration were analyzed by LC-MS/MS to quantify the concentrations of test compound and reference compounds.

[2] = system: HIV-1 transcription in 24STNLSG cells; assay: SEAP assay in 24STNLSG cells (latency reactivation); assay type: cell-based; details: for EC2X, 24STNLSG: concentration for 2-fold increase in SEAP activity; for Activity in 24STNLSG cells (in words): structure-activity
Protocol: SupT1-derived 24STNLSG cells were plated at 100,000 cells/well in black bottom/black walled 96-well plates in 50 μl RPMI-1640 medium (without phenol red) containing 10% FBS. Compound was added in 50 μl of identical medium using three-fold dose-response dilutions, in duplicate. […] TNF-α, a nuclear factor-κB (NF-κB) activator known to induce HIV- expression in cellular models, was used as a positive control. Plates were incubated for 72 h at 37°C, 5% CO2. Plates were then sealed and heated to 65°C for 30 min. Plates were brought to room temperature and 50 μl assay buffer (1 mM MgCl2, 10 mM L-homoarginine, 1 M diethylamine hydrochloride) was added to each well and incubated for 5 min at room temperature. To each well, 50 μl of CSPD Substrate (0.4 mM Ready-to-Use with Sapphire-II Enhancer; Applied Biosystems, Foster City, CA) was added. Plates were incubated for 20 min at room temperature and read on a ViewLux microplate imager (Perkin Elmer, Waltham, MA). Curves were fit by non-linear regression using Prism software (GraphPad, San Diego, CA).

[3] = Cytotoxicity assay in SupT1 cells (ATP, CellTiter-Glo); assay type: cell-based; details: human, SupT1 cells; ATP quantification; 72 h; read-out: CC50, SupT1
Protocol: SupT1 cells were plated at 100,000 per well in 96-well, white-walled plates with serial dilutions of test compound in a total volume of 100 μl RPMI-1640 medium containing 10% FBS and 0.5% DMSO. PBMCs were plated similarly at 50,000 cells/well and stimulated by addition of 40 μg/ml PHA and 80 ng/ml interleukin-2 (IL-2). Cells were incubated for 72 h at 37°C, 5% CO2. ATP was quantified using the CellTiter-Glo Luminescent Cell Viability Assay (Promega, Madison, WI) on a ViewLux microplate imager (Perkin Elmer, Waltham, MA). Percent cytotoxicity was determined relative to vehicle-only treated wells.

[4] = Microsome assay, human liver microsomes; assay type: in vitro ADME
Protocol: (§1) Human and mouse liver microsomes were obtained from XenoTech, LLC (Kansas City, KS). The reaction mixture was composed of liver microsomes (0.5 mg/mL), 20 mM Tris-HCl pH 7.4, 2.5 mM MgCl2, and an NADPH generating system (0.1 mM NADP, 1.2 mM glucose-6-phosphate and 0.3 units/ml glucose-6-phophate dehydrogenase). […] Test compounds were added to the microsome reaction and loss of parent molecule was monitored after 1 h by LC/MS/MS.

[5] = Microsome assay, mouse liver microsomes; assay type: in vitro ADME
Protocol: as §1

[6] = system: HIV-1 Gag (p24) in ACH-2 cells; assay: Intracellular staining for HIV Gag in ACH-2 cells (flow cytometry); assay type: cell-based; details: 16 h, 30 μM Cmpd 1 or Cmpd 2, 10 μM SAHA, 1 mM JQ1 or 10 ng/ml PMA, single experiment (Fig 4A)
Protocol: ACH-2 cells were treated as indicated and HIV-1 expression was monitored by intracellular staining for p24. Approximately, 1 × 10^6 cells were collected and washed in PBS before fixing by resuspending in 100 μl of BD Cytofix/Cytoperm (BD Biosciences, San Jose, CA) at 4°C for at least 20 min. Cells were then harvested by centrifugation and resuspended in 100 μl BD PermWash (50 mM NH4Cl, 5 mM EDTA, 0.1% saponin, 0.5% BSA, PBS and 1 mg/ml of anti-HIV-Gag PE (Clone KC57, Beckman Coulter, Brea CA). Cells were stained for 30 min, washed with the PermWash, and resuspended in FACS buffer (2 mM EDTA, 0.5% BSA, 1% paraformaldehyde in PBS). Cells were analyzed by flow cytometry using a FACSCalibur instrument (BD Biosciences). Flow cytometry was performed at the Boston University School of Medicine flow cytometry core.
Fig 4 Induction of HIV-1 expressing cells following treatment with latency reversing agents. ACH-2 cells were not treated or treated with a final concentration of 30 μM Cmpd 1 or Cmpd 2, 10 μM SAHA, 1 mM JQ1 or 10 ng/ml PMA for 16 h. Cells were stained using anti-HIV-Gag-PE and analyzed by flow cytometry. Numbers within the profiles represent the percentage of positive cells. These profiles are from a single experiment. B) Data from four independent experiments. Y-axis is mean of % p24 positive cells. * Cmpd 1 p-value […] compared to other treatments using a two-tailed t-test. TEXT PRINTED IN THE PICTURE: (A) Cmpd 1: Intracellular Gag: 65.6% | (A) Cmpd 2: Intracellular Gag: 33.9% | (A) SAHA: Intracellular Gag: 23.0% | (A) JQ1: Intracellular Gag: 16.7% | (A) PMA: Intracellular Gag: 94.2%

[7] = system: IL-2 secretion by PBMCs; assay: IL-2 ELISA in PBMCs; assay type: cell-based, human; details: 24 h
Protocol: Cryopreserved PBMCs from a single donor were thawed in RPMI-1640 plus 10% FBS. PBMCs were plated at 5×10^4/well in 96-well plates and compound was added with a final concentration of 0.5% DMSO. Plates were incubated for 24 h at 37°C, 5% CO2. Interleukin-2 was quantified using Human IL-2 DuoSet ELISA (R&D Systems, Minneapolis, MN). Raw data were converted to ng/ml IL-2 using a standard curve obtained in parallel.

[8] = system: Kaposi's sarcoma associated herpesvirus (KSHV) in BCP-1 cells; assay: KSHV activation assay in BCP-1 cells (ORF50 qRT-PCR); assay type: cell-based; details: 24 h, concentrations as low as 0.014 ng/ml
[9] = system: Epstein-Barr virus (EBV) in Raji cells; assay: EBV activation assay in Raji cells (BZLF1 qRT-PCR); assay type: cell-based; details: Raji cells, 24 h, concentrations as low as 0.014 ng/ml
[10] = Protein binding, human plasma (ultrafiltration); assay type: in vitro ADME; details: human plasma, 10 μM, pH 7.4
[11] = system: NF-κB response element reporter in Jurkat cells; assay: NF-κB-responsive Fluc reporter in Jurkat cells; assay type: cell-based, human; details: stably-transfected Jurkat cells, 4 h
Source text: The vector pGL4.32[luc2P/NF-κB-RE/Hygro] was purchased from Promega (Madison, WI), encoding 5 copies of a NF-κB response element driving expression of synthetic firefly luciferase gene, luc2, including a PEST destabilization sequence. Jurkat cells were transfected with this vector using a Gene Pulser® II (Biorad, Hercules, CA) with a 0.4 cm gap cuvette at 0.2 kV and 960 μF. Cells were allowed to recover for three days in RPMI-1640 with 10% FBS and 1% penicillin/streptomycin before selection with 200 μg/ml Hygromycin B for one month. Pooled, stably-transfected cells were plated at 50,000/well in 96-well plates and treated with test compounds in a final concentration of 0.5% DMSO for 4 h at 37°C. Luciferase activity was determined by adding one volume 2× steadylite plus reagent (Perkin Elmer, Waltham, MA) and reading on a ViewLux microplate imager.

[12] = system: HIV-1 LTR; assay: HIV LTR-driven Rluc reporter in HeLa cells; assay type: cell-based; details: transfected HeLa cells, 24 h
Source text: The vector pGL4.77[hRlucP/Hygro] encoding a Renilla luciferase gene including a PEST destabilization sequence, was purchased from Promega (Madison, WI). HIV-1 cDNA was generated from HIVIIIB virus using PureLink® Viral RNA/DNA Mini Kit (Invitrogen). The HIV-1 core promoter region (nucleotides -105 to 60) was amplified from HIVIIIB cDNA using primers designed with NheI (forward: 5ʹ-GCTAGCGGGACTTTCCGCTGGG-3ʹ) and XhoI (reverse: 5ʹ-CTCGAGAGTGGGTTCCCTAGTTAGCCA-3ʹ) flanking restriction site sequences. DNA fragments were generated using Platinum® Taq DNA Polymerase High Fidelity (Invitrogen) and fragment size was verified by electrophoresis using E-Gel® 1.2% agarose (Invitrogen). Fragments were cloned into pCR™2.1 TOPO® (Invitrogen), transformed into One Shot® TOP10 Chemically Competent E. coli (Invitrogen), and selected on LB-agar plates containing 100 μg/ml ampicillin. Individual colonies were grown in LB broth, DNA was isolated using QIAprep® Spin Miniprep Kit (Qiagen), and the inserted fragment was verified by EcoRI digestion followed by electrophoresis using E-Gel® 1.2% agarose (Invitrogen). To insert the HIV-1 LTR into the vector multiple cloning region, the resultant plasmids and pGL4.77[hRlucP/Hygro] were dually digested with NheI and XhoI (New England Biolabs), ligated using ExpressLink™ T4 DNA Ligase (Invitrogen), transformed into One Shot® TOP10 Chemically Competent E. coli (Invitrogen), and selected on LB-agar plates containing 100 μg/ml ampicillin. Clones were picked and DNA isolated using QIAprep® Spin Miniprep Kit (Qiagen) and the inserted fragment was verified by NheI/XhoI digestion followed by electrophoresis using E-Gel® 1.2% agarose (Invitrogen). The resultant plasmid, pGL4.77-LTR, was verified by sequencing at GENEWIZ (South Plainfield, NJ). […] Luciferase activity was quantified using Renilla Luciferase Assay System (Promega, Madison, WI) and results were normalized to the vehicle-treated control.

Compound: CC(=O)CC(c1ccccc1)c1c(O)c2ccccc2oc1=O (racemic) [Warfarin, (RS)-warfarin, reference compound]
- fraction unbound at 15 min, 10 μM ([1]; mouse, plasma): 0.047

Compound: Nc1ccc2[nH]c(-c3ccc(-c4nc5c(N)cccc5o4)cc3)nc2c1 [Compound 3]
- Max. fold induction, 24STNLSG ([2]; SEAP reporter, 72 h): 3 fold
- EC2X, 24STNLSG ([2]; 72 h): 3.7 µM
- CC50 at 72 h [3]: 8.8 µM

Compound: Cn1c(-c2ccc(-c3nc4cc(N)ccc4o3)cc2)nc2cc(N)ccc21 [Compound 4]
- EC2X, 24STNLSG ([2]; 72 h): >100 µM
- Activity in 24STNLSG cells (in words) [2]: complete loss of activity
- CC50 at 72 h [3]: > 100 µM

Compound: Nc1ccc2oc(-c3ccc(-c4nc5cc(N)ccc5o4)cc3)nc2c1 [Compound 5]
- EC2X, 24STNLSG ([2]; 72 h): >100 µM
- Activity in 24STNLSG cells (in words) [2]: inactive
- CC50 at 72 h [3]: > 100 µM

Compound: Nc1ccc2[nH]c(-c3ccc(-c4nc5cc(N)ccc5[nH]4)cc3)nc2c1 [Compound 6]
- EC2X, 24STNLSG ([2]; 72 h): >100 µM
- Activity in 24STNLSG cells (in words) [2]: inactive
- CC50 at 72 h [3]: > 100 µM

Compound: CC(C)N(CCC(C(N)=O)(c1ccccc1)c1ccccn1)C(C)C (stereo not shown) [Disopyramide, reference compound]
- HLM stability (% loss of parent compound at 1 h) [4]: 9%
- MLM stability (% loss of parent compound at 1 h) [5]: 12%

Compound: Cc1sc2c(c1C)C(c1ccc(Cl)cc1)=N[C@@H](CC(=O)OC(C)(C)C)c1nnc(C)n1-2 [JQ1, reference compound]
- Intracellular Gag, percentage of positive cells [6]: 16.7%

Compound: CCCCCCCCCCCCCC(=O)O[C@@H]1[C@@H](C)[C@@]2(O)[C@@H](C=C(CO)C[C@]3(O)C(=O)C(C)=C[C@@H]23)[C@@H]2C(C)(C)[C@]12OC(C)=O [PMA, phorbol 12-myristate 13-acetate, reference compound]
- Intracellular Gag, percentage of positive cells [6]: 94.2%
- IL-2 secretion by PBMCs (in words) [7]: induced high levels of IL-2
- Stimulation of ORF50 mRNA (KSHV) [8]: > 35 fold
- Stimulation of BLZF1 mRNA (EBV) [9]: > 35 fold

Compound: CC(C)NCC(O)COc1cccc2ccccc12 (stereo not shown) [Propanolol, propranolol, reference compound]
- % Plasma protein binding (human) [10]: 74.3%
- % Plasma protein binding (mouse) ([1]; mouse plasma, 10 μM): 73.8%

Compound: O=C(CCCCCCC(=O)Nc1ccccc1)NO [SAHA, Suberanilohydroxamic acid, reference compound]
- Intracellular Gag, percentage of positive cells [6]: 23.0%

Compound: TNF-α
- Induction of NF-κB driven reporter (in words) [11]: strongly induced this reporter
- Transcription driven by the HIV-1 LTR (in words) [12]: significantly increased expression of this reporter
